This passage reports Ki results from ChEMBL document CHEMBL1148784, “Synthesis and structure-affinity relationships of new 4-(6-iodo-H-imidazo[1,2-a]pyridin-2-yl)-N-dimethylbenzeneamine derivatives as ligands for human beta-amyloid plaques” (J Med Chem, 2007).

Each structure is given as a SMILES string. pKi: −log10 of the molar value.

For the assay, the target named is Amyloid-beta precursor protein (Homo sapiens, UniProt P05067). The experiment in a line: Binding affinity to human beta amyloid plaque in alzheimer's disease patient brain.
Amyloid-beta precursor protein, sequence (P05067 whole entry): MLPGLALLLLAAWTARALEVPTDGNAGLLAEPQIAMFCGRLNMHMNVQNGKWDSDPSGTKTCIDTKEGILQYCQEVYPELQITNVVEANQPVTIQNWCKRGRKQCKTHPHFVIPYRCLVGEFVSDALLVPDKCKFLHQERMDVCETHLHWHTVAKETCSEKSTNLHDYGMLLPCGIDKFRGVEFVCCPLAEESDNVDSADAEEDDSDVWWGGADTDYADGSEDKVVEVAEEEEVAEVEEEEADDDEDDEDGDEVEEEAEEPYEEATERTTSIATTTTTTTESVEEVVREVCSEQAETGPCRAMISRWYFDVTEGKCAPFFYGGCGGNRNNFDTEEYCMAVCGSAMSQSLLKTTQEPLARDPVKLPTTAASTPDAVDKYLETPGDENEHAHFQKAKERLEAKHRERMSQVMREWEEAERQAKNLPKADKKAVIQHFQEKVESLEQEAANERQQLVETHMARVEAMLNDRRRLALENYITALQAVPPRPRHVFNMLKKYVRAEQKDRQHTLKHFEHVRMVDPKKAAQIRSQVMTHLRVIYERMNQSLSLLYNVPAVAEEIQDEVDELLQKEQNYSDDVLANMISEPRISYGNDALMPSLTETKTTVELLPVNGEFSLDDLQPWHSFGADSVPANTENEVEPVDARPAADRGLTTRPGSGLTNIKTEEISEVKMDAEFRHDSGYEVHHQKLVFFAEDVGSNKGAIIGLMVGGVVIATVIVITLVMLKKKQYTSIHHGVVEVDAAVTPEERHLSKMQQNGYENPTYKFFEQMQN

Compound `CNc1ccc(-c2cn3cc(Br)ccc3n2)cc1C` gave a pKi of under 6.00.
In turn, `CN(C)c1ccc(-c2cn3cc(Br)cc(I)c3n2)cc1` had a pKi of 6.74.
Compound `CN(C)c1ccc(-c2cn3cc(Br)cc(C#N)c3n2)cc1` had a pKi of under 6.74.
In the case of `CC(=O)N(C)c1ccc(-c2cn3cc(Br)ccc3n2)cc1C` it was under 6.00; in that of `CNc1ccc(-c2cn3cc(SCC(N)=O)ccc3n2)cc1C`, under 6.00; in that of `CNc1ccc(-c2cn3cc(SCCO)ccc3n2)cc1C`, under 6.00.
Compound `CN(C(=O)C(F)(F)F)c1ccc(-c2cn3cc(Br)ccc3n2)cc1Br` gave a pKi of under 6.00.
In the case of `Cc1cc(-c2cn3cc(Br)ccc3n2)ccc1NC(=O)C(F)(F)F` it was under 6.00.

What is called pKi is the negative decadic logarithm of the Ki, by convention in mol/L. Low values mean a high Ki, high ones a low Ki.
